From patent US9540338B2, “Substituted cinnamic acid amides for treating pain” (NIPPON ZOKI PHARMACEUTICAL CO., LTD., priority 2012, dated 2017)
Where a name gives a salt, the structure may show the parent alone. Marks after values point to notes of the source that are not given here.

How the values were obtained:
Chung model rat = assay: Analgesic efficacy test (2): Chung model rat, neuropathic pain model (allodynia, von Frey filament); format: in vivo, rats; conditions: mean ± standard error
Method: An analgesic efficacy test was conducted using a Chung model rat, a neuropathic pain model. Nine-week old Wistar male rats were previously bred as an experimental animal, and a model rat was then prepared in accordance with the method of Kim and Chung (Pain, 50, 355-363, 1992). Specifically, left L5 spinal nerves of rats were exposed under anesthetization with pentobarbital (40 mg/kg, intraperitoneal administration), and firmly ligated with 5-0 silk yarn at L5 dorsal root ganglion peripheral side. The animals were placed in a transparent acrylic cage of which bottom was wire netted The measurement of allodynia was carried out using von Frey filament (manufactured by North Coast Medical Inc.) and a 50% reaction threshold was calculated according to an up-down method, in accordance with a method of Chaplan et al. (J. Neurosci. Method, 53, 55-63, 1994). The 50% reaction thresholds were measured twice before injury of the spinal nerve, and those animals of which thresholds were outside the standard were removed from the operation of spinal nerve injury. On or after 14 days from the spinal nerve injury, a 50% reaction threshold was measured, and those showing thresholds of 1 g or more and less than 4 g were used as experimental animal. The group was constituted by 7 or 8 rats per group so that an average of a 50% reaction threshold for each group would be nearly even.
A solution or suspension prepared by dissolving or suspending a compound of the present invention in a 0.5% (w/v) aqueous CMC-Na solution was orally administered as a test substance in a single dose. Also, a 0.5% (w/v) aqueous CMC-Na solution was administered in the same manner to the control group for nerve injury. The measurements of allodynia were carried out with the passage of time after administration, and a 50% reaction threshold (mean±standard error) of each group at action peak was calculated. In the test for significance difference, Bartlett's test was carried out in the comparison between multiple groups of the group administered with test substance with the control group for nerve injury. In the case of homoscedasticity, Dunnett's multiple comparison test of parametrics, and in the case of heteroscedasticity, Dunnett's multiple comparison test of non-parametrics were used. In all cases, significance difference was considered to be found at P<0.05 (indicated as “*” in the tables).

[1] = oral 1 mg/kg, measurement point 90 minute (action peak)
[2] = oral 10 mg/kg, measurement point 90 minute (action peak)
[3] = oral 1 mg/kg, measurement point 60 minute (action peak)
[4] = oral 10 mg/kg, measurement point 60 minute (action peak)
[5] = oral 1 mg/kg, measurement point 30 minute (action peak)
[6] = oral 10 mg/kg, measurement point 30 minute (action peak)

melting point [°C] | SMILES | other results
212 to 213 | O=C(/C=C/c1ccccc1F)NCCN1CCNCC1 (as salt: hydrochloride) [Compound 16, (E)-3-(2-Fluorophenyl)-N-[2-(piperazin-1-yl)ethyl]-2-propenamide dihydrochloride] | –
– | Cl.O=C(/C=C/c1ccccc1F)NCCCn1ccnc1 [Compound 45, (E)-3-(2-Fluorophenyl)-N-[3-(imidazol-1-yl)propyl]-2-propenamide hydrochloride] | 50% Reaction Threshold, Group Administered with Test Substance, After Administration (Chung model rat; [1]): 8.81 ± 1.05* g; 50% Reaction Threshold, Group Administered with Test Substance, After Administration (Chung model rat; [2]): 12.23 ± 1.10* g
237 to 238 | Cl.O=C(/C=C/c1ccc(C(=O)O)cc1)NCCn1ccnc1 | –
182 to 183 | Cl.O=C(/C=C/c1ccccc1F)NCCCN1CC[S+]([O-])CC1 [Compound 68, (E)-3-(2-Fluorophenyl)-N-[3-(1-oxo-1,4-thiazinan-4-yl)propyl]-2-propenamide hydrochloride] | 50% Reaction Threshold, Group Administered with Test Substance, After Administration (Chung model rat; [1]): 9.04 ± 1.17* g; 50% Reaction Threshold, Group Administered with Test Substance, After Administration (Chung model rat; [2]): 11.25 ± 0.94* g
180 to 181 | C/C(=C\c1ccccc1F)C(=O)NCCCN1CC[S+]([O-])CC1.Cl | –
118 to 120 | O=C(/C=C/c1cc(F)ccc1F)NCCn1ccnc1 [Compound 24, (E)-3-(2,5-Difluorophenyl)-N-[2-(imidazol-1-yl)ethyl]-2-propenamide] | 50% Reaction Threshold, Group Administered with Test Substance, After Administration (Chung model rat; [3]): 4.63 ± 0.36 g; 50% Reaction Threshold, Group Administered with Test Substance, After Administration (Chung model rat; [4]): 7.85 ± 0.99* g
75 to 76 | O=C(/C=C/c1c(F)cccc1F)NCCCN1CCOCC1 [Compound 30, (E)-3-(2,6-Difluorophenyl)-N-(3-morpholinopropyl)-2-propenamide] | –
193 to 195 | O=C(O)CCNC(=O)/C=C/c1ccccc1F [Compound 66, 3-{[(E)-3-(2-Fluorophenyl)-2-propenoyl]amino}propanoic acid] | –
80 to 81 | O=C(/C=C/c1ccccc1F)NCCN1CCCCCC1 [Compound 36, (E)-N-[(2-Azepan-1-yl)ethyl]-3-(2-fluorophenyl)-2-propenamide] | –
128 to 129 | Nc1ccccc1CCNC(=O)/C=C/c1ccccc1F [Compound 19, (E)-N-[2-(2-Aminophenyl)ethyl]-3-(2-fluorophenyl)-2-propenamide] | –
156 to 157 | O=C(/C=C/c1ccccc1F)NCc1cccc(N2CC[S+]([O-])CC2)c1 [Compound 70, (E)-3-(2-Fluorophenyl)-N-{[3-(oxo-1,4-thiazinan-4-yl)phenyl]methyl}-2-propenamide] | 50% Reaction Threshold, Group Administered with Test Substance, After Administration (Chung model rat; [3]): 4.09 ± 0.34* g; 50% Reaction Threshold, Group Administered with Test Substance, After Administration (Chung model rat; [4]): 3.41 ± 0.31* g
185 to 187 | O=C(/C=C/c1ccccc1F)Nc1cccc(-c2ccno2)c1 [Compound 54, (E)-3-(2-Fluorophenyl)-N-[3-(isoxazol-5-yl)phenyl]-2-propenamide] | 50% Reaction Threshold, Group Administered with Test Substance, After Administration (Chung model rat; [5]): 5.18 ± 0.81 g; 50% Reaction Threshold, Group Administered with Test Substance, After Administration (Chung model rat; [6]): 11.20 ± 1.19* g
78 to 79 | C/C(=C\c1ccc(F)cc1)C(=O)NCCCN1CCOCC1 [Compound 46, (E)-3-(4-Fluorophenyl)-2-methyl-N-(3-morpholinopropyl)-2-propenamide] | 50% Reaction Threshold, Group Administered with Test Substance, After Administration (Chung model rat; [5]): 7.51 ± 1.60* g; 50% Reaction Threshold, Group Administered with Test Substance, After Administration (Chung model rat; [6]): 8.70 ± 1.43* g
204 to 206 | O=C(/C=C/c1ccccc1F)Nc1ccc(-c2ccno2)cc1 [Compound 53, (E)-3-(2-Fluorophenyl)-N-[4-(isoxazol-5-yl)phenyl]-2-propenamide] | –
– | O=C(/C=C/c1ccccc1C(=O)O)NCCn1ccnc1 [Compound 47, (E)-3-(2-Carboxyphenyl)-N-[(2-imidazol-1-yl)ethyl]-2-propenamide] | 50% Reaction Threshold, Group Administered with Test Substance, After Administration (Chung model rat; [3]): 10.58 ± 1.74* g; 50% Reaction Threshold, Group Administered with Test Substance, After Administration (Chung model rat; [4]): 13.58 ± 0.67* g
195 to 197 | Cl.O=C(/C=C/c1cccc(C(=O)O)c1)NCCn1ccnc1 | –
110 to 112 | O=C(/C=C/c1ccccc1F)NCCn1ccnn1 [Compound 40, (E)-3-(2-Fluorophenyl)-N-[2-([1,2,3]triazol-1-yl)ethyl]-2-propenamide] | 50% Reaction Threshold, Group Administered with Test Substance, After Administration (Chung model rat; [3]): 3.61 ± 0.41 g; 50% Reaction Threshold, Group Administered with Test Substance, After Administration (Chung model rat; [4]): 5.86 ± 1.17* g
227 to 228 | Cl.O=C(/C=C/c1ccccc1F)NCCCNC1CCCCC1 | –
166 to 167 | Cl.O=C(/C=C/c1ccccc1F)NCCCN1CCCCC1 | –

melting point [°C] | SMILES | other results
– | O=C(/C=C/c1ccccc1F)NCCn1cncn1 [Compound 39, (E)-3-(2-Fluorophenyl)-N-[2-([1,2,4]triazol-1-yl)ethyl]-2-propenamide dihydrochloride] | 50% Reaction Threshold, Group Administered with Test Substance, After Administration (Chung model rat; [1]): 3.55 ± 0.59 g; 50% Reaction Threshold, Group Administered with Test Substance, After Administration (Chung model rat; [2]): 4.05 ± 0.48* g
133 to 138 | CN1CCN(CCCNC(=O)/C=C/c2ccccc2F)CC1 (as salt: hydrochloride) [Compound 15, (E)-3-(2-Fluorophenyl)-N-[3-(4-methylpiperazin-1-yl)propyl]-2-propenamide dihydrochloride] | –
143 to 145 | O=C(/C=C/c1ccccc1F)NCCn1cnc2ccccc21 [Compound 22, (E)-N-[2-(Benzoimidazol-1-yl)ethyl]-3-(2-fluorophenyl)-2-propenamide] | –
123 to 124 | COc1ccc(CCNC(=O)/C=C/c2ccccc2F)cc1 [Compound 37, (E)-3-(2-Fluorophenyl)-N-[2-(4-methoxyphenyl)ethyl]-2-propenamide] | –
116 to 117 | Cl.O=C(/C=C/c1ccccc1F)NCCc1cccnc1 | –
– | O=C(/C=C/c1ccccc1F)Nc1cccc(-c2ccn[nH]2)c1 [Compound 52, (E)-3-(2-Fluorophenyl)-N-[3-(2H-pyrazol-3-yl)phenyl]-2-propenamide] | 50% Reaction Threshold, Group Administered with Test Substance, After Administration (Chung model rat; [5]): 7.42 ± 1.14* g; 50% Reaction Threshold, Group Administered with Test Substance, After Administration (Chung model rat; [6]): 9.12 ± 2.00* g
96 to 98 | O=C(/C=C/c1ccccc1F)NCCn1ccc2ccccc21 [Compound 41, (E)-3-(2-Fluorophenyl)-N-[2-(indol-1-yl)ethyl]-2-propenamide] | –
107 to 108 | CN(C)CCCCNC(=O)/C=C/c1ccccc1F.Cl | –
197 to 198 | Cl.O=C(/C=C/c1ccccc1C(F)(F)F)NCCCN1CCOCC1 | –
110 to 111 | N#C/C(=C\c1ccc(F)cc1)C(=O)NCCCN1CCOCC1 [Compound 58, (E)-2-Cyano-3-(4-fluorophenyl)-N-(3-morpholinopropyl)-2-propenamide] | –
83 to 84 | O=C(/C=C/c1ccccc1F)NCCN1CCCC1 [Compound 35, (E)-3-(2-Fluorophenyl)-N-[2-(pyrrolidin-1-yl)ethyl]-2-propenamide] | –
127 to 128 | O=C(/C=C/c1ccc(F)c(F)c1)NCCCN1CCOCC1 [Compound 31, (E)-3-(3,4-Difluorophenyl)-N-(3-morpholinopropyl)-2-propenamide] | –
163 to 164 | O=C(/C=C/c1ccccc1F)NCCn1ccnc1-c1ccccc1 [Compound 44, (E)-3-(2-Fluorophenyl)-N-[2-(2-phenylimidazol-1-yl)ethyl]-2-propenamide] | –
116 to 118 | O=C(/C=C/c1ccccc1F)Nc1ccc(-c2ccn[nH]2)cc1 [Compound 51, (E)-3-(2-Fluorophenyl)-N-[4-(2H-pyrazol-3-yl)phenyl]-2-propenamide] | –
86 to 87 | O=C(/C=C/c1ccccc1F)NCCc1ccccn1 (as salt: hydrochloride) [Compound 9, (E)-3-(2-Fluorophenyl)-N-[2-(2-pyridyl)ethyl]-2-propenamide hydrochloride] | –
97 to 99 | O=C(/C=C/c1cccc(F)c1F)NCCCN1CCOCC1 [Compound 27, (E)-3-(2,3-Difluorophenyl)-N-(3-morpholinopropyl)-2-propenamide] | –
143 to 144 | O=C(/C=C/c1ccccc1F)NCCCN1CCNCC1 (as salt: hydrochloride) | –
102 to 103 | O=C(/C=C/c1ccc(C(F)(F)F)cc1F)NCCCN1CCOCC1 [Compound 32, (E)-3-(2-Fluoro-4-trifluoromethylphenyl)-N-(3-morpholinopropyl)-2-propenamide] | –
